According to patent publication US6709649B1, “RANTES derived peptides with anti-HIV activity” (Fondazione Centro San Raffaele Del Monte Tabor, priority 1998, dated 2004):

How the values were obtained:
[1] = test system: HIV-1 CCR5-dependent (PM1BaL) strain; test: test of inhibition of the formation of syncitia (PM1 cells chronically infected with HIV-1BaL); assay type: cell-based; settings: PM1 line infected by HIV-1BaL
Text: Some peptides of the invention have been tested to verify their inhibitory activity against HIV virus-1. Two different tests have been used: the “cell-free ” acute infection test and the test of inhibition of the formation of syncitia. The first test evaluates the growth of HIV-1 in primary mononuclear cells pre-activated in vitro and is closer to the natural model of infection. On the other hand, the test of syncitia inhibition evaluates the capability of an inhibitor to inhibit the membrane fusion induced by HIV and it makes use of cells of a continuous line T CD4+ (PM1) chronically infected with an HIV-1 CCR5-dependent (PM1BaL) strain. In both tests, cells were pre-treated with the peptides before exposition to the virus or to 5 the infected cells. Scalar concentrations for each peptide have been tested to calculate the 50% inhibitory dose (ID50), i.e. the dose capable of reducing by 50% the values of the untreated controls. The ID50 values (expressed as micromolar values) of different peptides in the acute infection test are illustrated in the following Table: […]

[2] = test system: CCR5-dependent HIV-1BaL strain; test: "cell-free" acute infection test (growth of HIV-1 in pre-activated primary mononuclear cells, p24 antigen); assay type: cell-based; settings: at the tested doses
Text: Some peptides of the invention have been tested to verify their inhibitory activity against HIV virus-1. Two different tests have been used: the “cell-free ” acute infection test and the test of inhibition of the formation of syncitia. The first test evaluates the growth of HIV-1 in primary mononuclear cells pre-activated in vitro and is closer to the natural model of infection. On the other hand, the test of syncitia inhibition evaluates the capability of an inhibitor to inhibit the membrane fusion induced by HIV and it makes use of cells of a continuous line T CD4+ (PM1) chronically infected with an HIV-1 CCR5-dependent (PM1BaL) strain. In both tests, cells were pre-treated with the peptides before exposition to the virus or to 5 the infected cells. Scalar concentrations for each peptide have been tested to calculate the 50% inhibitory dose (ID50), i.e. the dose capable of reducing by 50% the values of the untreated controls. The ID50 values (expressed as micromolar values) of different peptides in the acute infection test are illustrated in the following Table:
The ability of the mutants obtained as described in Example 2, to inhibit the infection by the prototypic macrophage-tropic HIV-1BaL strain, was evaluated in primary cultures of activated mononuclear cells from peripheral blood. The procedure used to infect PBL and to evaluate the production of p24 antigen is described in literature (Scarlatti et al., Nat. Med. November 3:11 1259-65, 1997).

For Ace-CFAYIARPLPRAHIKEYFY-NH2 [Peptide 2], the “capability to inhibit the formation of syncitia (in words)” value [1] was “increased capability to inhibit the formation of syncitia” and the “capability to inhibit the acute infection (in words)” value [2] was “marked increase in the capability to, inhibit the acute infection”.

“SGKCSNPAVVFV [RANTES peptide used as control]” was tested, and the “capability to inhibit the acute infection (in words)” value [2] was “no antiviral activity”.

“YTSGKCSNPAVV [B, RANTES peptide used as control]” was tested, and the “capability to inhibit the acute infection (in words)” value [2] was “no antiviral activity”.

For “YFYTSGKCSNPA [RANTES peptide used as control]”, the “capability to inhibit the acute infection (in words)” value [2] was “no antiviral activity”.

For “Ace-FAYIARPLPRAHIKEYFY-NH2 (Ac-FAYIARPLPRAHIKEYFY-NH2) [Peptide 1]”, the “capability to inhibit the formation of syncitia (in words)” value [1] was “increased capability to inhibit the formation of syncitia” and the “capability to inhibit the acute infection (in words)” value [2] was “marked increase in the capability to, inhibit the acute infection”.
